From patent US6319702A, “Nucleic acids encoding mutant human carboxypeptidase A enzymes” (Glaxo Wellcome, Inc., priority 1993, dated 2001)
Read-outs that look alike come from different tables or passages of the source.

What was measured:
[1] = test system: 268gly; test: Enzyme kinetics of prodrugs with 268gly mutant of human CPA1 (coupled assay); format: biochemical; conditions: for kcat/Km: 268Gly
How it was run: (§1)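 Coupled spectrophotometric assay: released methotrexate converted by excess carboxypeptidase G (17 milliunits) to its pteroate, followed at 315 nm (Δε 9.57 mM^-1 cm^-1). 25° C in 25 mM tris-HCl, 100 mM NaCl, pH 7.4; reaction started with wild-type or mutant carboxypeptidase A. Kinetic constants from initial velocities by Michaelis-Menten analysis.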

[2] = test system: mutant enzyme; test: Substrate behaviour with mutant enzyme; format: biochemical, human
Source text: This type of compound is not useful for ADEPT.

[3] = test system: 268ala; test: Enzyme kinetics of prodrugs with 268ala mutant of human CPA1 (coupled assay); format: biochemical; conditions: 25° C., pH 7.4
How it was run: as §1

[4] = target: T1, wild type human carboxypeptidase A1 (Homo sapiens, UniProt P15085); test: Enzyme kinetics of prodrugs with wild type human carboxypeptidase A1 (coupled assay); format: biochemical
T1 sequence (P15085 111-419): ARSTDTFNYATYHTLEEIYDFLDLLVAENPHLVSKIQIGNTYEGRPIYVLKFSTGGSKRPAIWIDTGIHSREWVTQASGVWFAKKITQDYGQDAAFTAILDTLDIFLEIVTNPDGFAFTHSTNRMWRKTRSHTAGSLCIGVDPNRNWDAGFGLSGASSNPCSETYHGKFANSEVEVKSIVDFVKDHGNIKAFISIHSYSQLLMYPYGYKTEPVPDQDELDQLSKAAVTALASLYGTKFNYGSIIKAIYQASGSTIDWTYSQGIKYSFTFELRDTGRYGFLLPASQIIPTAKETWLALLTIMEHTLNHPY
How it was run: as §1

[5] = in vivo; conditions: mouse, iv
[6] = Stability and biodistribution of prodrugs in vivo (HPLC of plasma and tissues); design: species or system mice (CD-1 nude; BALB/C where indicated); conditions: for stability in vivo (in words): mice
[7] = CECUM, 30 min, 50 mg/kg i.p. or i.v., CD-1 nude mice
[8] = CECUM, 120 min, 50 mg/kg i.p. or i.v., CD-1 nude mice
[9] = FECES, 30 min, 50 mg/kg i.p. or i.v., CD-1 nude mice
[10] = FECES, 120 min, 50 mg/kg i.p. or i.v., CD-1 nude mice
[11] = KIDNEY, 30 min, 50 mg/kg i.p. or i.v., CD-1 nude mice
[12] = KIDNEY, 120 min, 50 mg/kg i.p. or i.v., CD-1 nude mice
[13] = LARGE INTESTINE, 30 min, 50 mg/kg i.p. or i.v., CD-1 nude mice
[14] = LARGE INTESTINE, 120 min, 50 mg/kg i.p. or i.v., CD-1 nude mice
[15] = LIVER, 30 min, 50 mg/kg i.p. or i.v., CD-1 nude mice
[16] = LIVER, 120 min, 50 mg/kg i.p. or i.v., CD-1 nude mice
[17] = SMALL INTESTINE, 30 min, 50 mg/kg i.p. or i.v., CD-1 nude mice
[18] = SMALL INTESTINE, 120 min, 50 mg/kg i.p. or i.v., CD-1 nude mice
[19] = SPLEEN, 30 min, 50 mg/kg i.p. or i.v., CD-1 nude mice
[20] = mouse, cecum, 50 mg/kg, CECUM, 30 min, 50 mg/kg i.p. or i.v., CD-1 nude mice, read-out: stability: percentage of material observed as intact prodrug, cecum
[21] = mouse, cecum, 50 mg/kg, CECUM, 120 min, 50 mg/kg i.p. or i.v., CD-1 nude mice, read-out: stability: percentage of material observed as intact prodrug, cecum
[22] = mouse, feces, 50 mg/kg, FECES, 30 min, 50 mg/kg i.p. or i.v., CD-1 nude mice, read-out: stability: percentage of material observed as intact prodrug, feces (converted)
[23] = mouse, feces, 50 mg/kg, FECES, 120 min, 50 mg/kg i.p. or i.v., CD-1 nude mice, read-out: stability: percentage of material observed as intact prodrug, feces
[24] = mouse, kidney, 50 mg/kg, KIDNEY, 30 min, 50 mg/kg i.p. or i.v., CD-1 nude mice, read-out: stability: percentage of material observed as intact prodrug, kidney
[25] = mouse, kidney, 50 mg/kg, KIDNEY, 120 min, 50 mg/kg i.p. or i.v., CD-1 nude mice, read-out: stability: percentage of material observed as intact prodrug, kidney
[26] = mouse, large intestine, 50 mg/kg, LARGE INTESTINE, 30 min, 50 mg/kg i.p. or i.v., CD-1 nude mice, read-out: stability: percentage of material observed as intact prodrug, large intestine
[27] = mouse, large intestine, 50 mg/kg, LARGE INTESTINE, 120 min, 50 mg/kg i.p. or i.v., CD-1 nude mice, read-out: stability: percentage of material observed as intact prodrug, large intestine
[28] = mouse, liver, 50 mg/kg, LIVER, 30 min, 50 mg/kg i.p. or i.v., CD-1 nude mice, read-out: stability: percentage of material observed as intact prodrug, liver (converted)
[29] = mouse, liver, 50 mg/kg, LIVER, 120 min, 50 mg/kg i.p. or i.v., CD-1 nude mice, read-out: stability: percentage of material observed as intact prodrug, liver
[30] = mouse, plasma, 50 mg/kg, PLASMA, 30 min, 50 mg/kg i.p. or i.v., CD-1 nude mice, read-out: concentration of prodrug in plasma
[31] = mouse, plasma, 50 mg/kg, PLASMA, 30 min, 50 mg/kg i.p. or i.v., CD-1 nude mice, read-out: stability: percentage of material observed as intact prodrug, plasma
[32] = mouse, small intestine, 50 mg/kg, SMALL INTESTINE, 30 min, 50 mg/kg i.p. or i.v., CD-1 nude mice, read-out: stability: percentage of material observed as intact prodrug, small intestine
[33] = mouse, small intestine, 50 mg/kg, SMALL INTESTINE, 120 min, 50 mg/kg i.p. or i.v., CD-1 nude mice, read-out: stability: percentage of material observed as intact prodrug, small intestine
[34] = mouse, spleen, 50 mg/kg, SPLEEN, 30 min, 50 mg/kg i.p. or i.v., CD-1 nude mice, read-out: stability: percentage of material observed as intact prodrug, spleen

## CN(Cc1cnc2nc(N)nc(N)c2n1)c1ccc(C(=O)N[C@@H](CCC(=O)O)C(=O)N[C@@H](Cc2ccccc2C2CCCC2)C(=O)O)cc1 [Prodrug 8]
[1]
  kcat/Km: 157000 M⁻¹ s⁻¹
[1]; 268gly, 25° C., pH 7.4
  Km: 15 µM
  kcat: 2.35 s⁻¹
[2]
  substrate for a mutant enzyme (in words): good substrates for a mutant enzyme
[3]
  Km: 56 µM
  kcat: 0.088 s⁻¹
[4]
  kcat/Km for human CPA1 compared with that of the L-phenylalanine prodrug (in words): much lower
  substrate for wild type CPA (in words): not for the wild type enzyme
[4]; Human CPA1, 25° C., pH 7.4
  kcat: 0.012 s⁻¹
[5]
  MTD: ≥ 20 mg/kg
[6]; [7]
  concentration of prodrug in cecum: 6.8 nmol/g
[6]; [8]
  concentration of prodrug in cecum: 235.1 nmol/g
[6]; [9]
  concentration of prodrug in feces: 150.2 nmol/g
[6]; [10]
  concentration of prodrug in feces: 646.2 nmol/g
[6]; [11]
  concentration of prodrug in kidney: 5.6 nmol/g
[6]; [12]
  concentration of prodrug in kidney: 3.2 nmol/g
[6]; [13]
  concentration of prodrug in large intestine: 5.2 nmol/g
[6]; [14]
  concentration of prodrug in large intestine: 27.3 nmol/g
[6]; [15]
  concentration of prodrug in liver: 113.5 nmol/g
[6]; [16]
  concentration of prodrug in liver: 43.9 nmol/g
[6]; [17]
  concentration of prodrug in small intestine: 364.5 nmol/g
[6]; [18]
  concentration of prodrug in small intestine: 31.7 nmol/g
[6]; [19]
  concentration of prodrug in spleen: 1.4 nmol/g
[6]; SPLEEN, 120 min, 50 mg/kg i.p. or i.v., CD-1 nude mice
  concentration of prodrug in spleen: 1.1 nmol/g
[6]; 50 mg/kg
  stability in vivo (in words): stable in vivo
[6]; [20]
  remaining at 0.5 h: 75%
[6]; [21]
  remaining at 2 h: 56%
[6]; [22]
  remaining at 0.5 h: 71%
[6]; [23]
  remaining at 2 h: 55%
[6]; [24]
  remaining at 0.5 h: 84%
[6]; [25]
  remaining at 2 h: 81%
[6]; [26]
  remaining at 0.5 h: 93%
[6]; [27]
  remaining at 2 h: 57%
[6]; [28]
  remaining at 0.5 h: 90%
[6]; [29]
  remaining at 2 h: 76%
[6]; [30]
  concentration at 0.5 h: 28500 nM
[6]; [31]
  remaining at 0.5 h: 95%
[6]; mouse, plasma, 50 mg/kg, PLASMA, 120 min, 50 mg/kg i.p. or i.v., CD-1 nude mice, read-out: concentration of prodrug in plasma
  concentration at 2 h: 1100 nM
[6]; mouse, plasma, 50 mg/kg, PLASMA, 120 min, 50 mg/kg i.p. or i.v., CD-1 nude mice, read-out: stability: percentage of material observed as intact prodrug, plasma
  remaining at 2 h: 90%
[6]; [32]
  remaining at 0.5 h: 77%
[6]; [33]
  remaining at 2 h: 35%
[6]; [34]
  remaining at 0.5 h: 98%
[6]; mouse, spleen, 50 mg/kg, SPLEEN, 120 min, 50 mg/kg i.p. or i.v., CD-1 nude mice, read-out: stability: percentage of material observed as intact prodrug, spleen
  remaining at 2 h: 100%

## CN(Cc1cnc2nc(N)nc(N)c2n1)c1ccc(C(=O)N[C@@H](CCC(=O)O)C(=O)N[C@@H](Cc2cccc(C3CCCC3)c2)C(=O)O)cc1 [Prodrug 9]
[1]
  kcat/Km: 92000 M⁻¹ s⁻¹
[2]
  substrate for a mutant enzyme (in words): good substrates for a mutant enzyme
[4]
  human CPA catalyzed reaction (in words): not measureable
  kcat/Km for human CPA1 compared with that of the L-phenylalanine prodrug (in words): much lower
  substrate for wild type CPA (in words): not for the wild type enzyme
[6]; [7]
  concentration of prodrug in cecum: 4.l
[6]; [8]
  concentration of prodrug in cecum: 108.3 nmol/g
[6]; FECES, 30 min, 50 mg/kg i.p. or i.v., BALB/C mice
  concentration of prodrug in feces: 1604.27 nmol/g
[6]; [9]
  concentration of prodrug in feces: 1104.1 nmol/g
[6]; [10]
  concentration of prodrug in feces: 1505.7 nmol/g
[6]; [11]
  concentration of prodrug in kidney: 6.8 nmol/g
[6]; [12]
  concentration of prodrug in kidney: 1.3 nmol/g
[6]; [13]
  concentration of prodrug in large intestine: 2.6 nmol/g
[6]; [14]
  concentration of prodrug in large intestine: 6.2 nmol/g
[6]; [15]
  concentration of prodrug in liver: 54.3 nmol/g
[6]; [16]
  concentration of prodrug in liver: 126.2 nmol/g
[6]; SMALL INTESTINE, 30 min, 50 mg/kg i.p. or i.v., BALB/C mice
  concentration of prodrug in small intestine: 420.3 nmol/g
[6]; [17]
  concentration of prodrug in small intestine: 377.9 nmol/g
[6]; [18]
  concentration of prodrug in small intestine: 211.0 nmol/g
[6]; [19]
  concentration of prodrug in spleen: 8.4 nmol/g
[6]; 50 mg/kg
  stability in vivo (in words): stable in vivo
[6]; [20]
  remaining at 0.5 h: 100%
[6]; [21]
  remaining at 2 h: 99%
[6]; mouse, feces, 50 mg/kg, FECES, 30 min, 50 mg/kg i.p. or i.v., BALB/C mice, read-out: stability: percentage of material observed as intact prodrug, feces (converted)
  remaining at 0.5 h: 98%
[6]; [22]
  remaining at 0.5 h: 97%
[6]; [23]
  remaining at 2 h: 94%
[6]; [24]
  remaining at 0.5 h: 100%
[6]; [25]
  remaining at 2 h: 100%
[6]; [26]
  remaining at 0.5 h: 100%
[6]; [27]
  remaining at 2 h: 100%
[6]; [28]
  remaining at 0.5 h: 83%
[6]; [29]
  remaining at 2 h: 94%
[6]; mouse, plasma, 50 mg/kg, PLASMA, 30 min, 50 mg/kg i.p. or i.v., BALB/C mice, read-out: concentration of prodrug in plasma
  concentration at 0.5 h: 4900 nM
[6]; mouse, plasma, 50 mg/kg, PLASMA, 30 min, 50 mg/kg i.p. or i.v., BALB/C mice, read-out: stability: percentage of material observed as intact prodrug, plasma
  remaining at 0.5 h: 100%
[6]; [30]
  concentration at 0.5 h: 1100 nM
[6]; [31]
  remaining at 0.5 h: 100%
[6]; mouse, small intestine, 50 mg/kg, SMALL INTESTINE, 30 min, 50 mg/kg i.p. or i.v., BALB/C mice, read-out: stability: percentage of material observed as intact prodrug, small intestine
  remaining at 0.5 h: 98%
[6]; [32]
  remaining at 0.5 h: 97%
[6]; [33]
  remaining at 2 h: 93%
[6]; [34]
  remaining at 0.5 h: 100%
